# Like-named read-outs stand apart in the source and are kept apart here.
# Key:
# [1] = tested on: P. falciparum 3D7 parasites; experiment: P. falciparum growth inhibition assay, 1-cycle (72 h treatment), SYBR DNA staining (library screen at 2 μg/mL and dose-response); format: cell-based, Plasmodium falciparum; conditions: for activity at 2 µg/mL: Plasmodium falciparum, 3D7, 72 h
# [2] = tested on: T. gondii RH strain (RH-Tub-eYFP) tachyzoites; experiment: microbe, parasite or virus in culture; format: cell-based, Toxoplasma gondii; conditions: 72 h; for percent parasite growth at 2 µg/mL: Toxoplasma gondii
# [3] = tested on: P. falciparum 3D7 parasites; experiment: P. falciparum growth inhibition assay, 2-cycle (120 h treatment), delayed-death screen and dose-response; format: cell-based, Plasmodium falciparum; conditions: for activity at 2 µg/mL: Plasmodium falciparum, 3D7, 120 h
# [4] = library screen at 2 μg/mL, 72 h, % growth, replicate 1
# [5] = library screen at 2 μg/mL, 72 h, % growth, replicate 2
# [6] = library screen at 2 μg/mL, % growth, replicate 1
# [7] = library screen at 2 μg/mL, % growth, replicate 2
# [8] = library screen at 2 μg/mL, 120 h, % growth, replicate 1
# [9] = library screen at 2 μg/mL, 120 h, % growth, replicate 2
molecule,measurement,setting,value
CC(/C=C/C1CC=CC(=O)O1)=C\C(C)C/C=C/C(C)=C/C(C)C(=O)C(C)C(O)C(C)C/C(C)=C/C(=O)O (stereo not drawn) [Anguinomycin A],Pf_72h_%Growth_Rep1,[1]; [4],77.34%
same,Pf_72h_%Growth_Rep2,[1]; [5],87.20%
same,Tg_72h_%Growth_Rep1,[2]; [6],87.81%
same,Tg_72h_%Growth_Rep2,[2]; [7],87.77%
same,Pf_120h_%Growth_Rep1,[3]; [8],145.35%
same,Pf_120h_%Growth_Rep2,[3]; [9],79.09%
CCCCCC(=O)OC1C(C)OC(OC2C(C)OC(OC3C(CC=O)CC(C)C(O)C=CC=CCC(C)OC(=O)CC(O)C3OC)C(O)C2N(C)C)CC1(C)O (stereo not drawn) [BIA-L1365],Pf_72h_%Growth_Rep1,"[1]; P. falciparum 3D7, 72 h, library screen at 2 μg/mL, % growth, replicate 1",29.67%
same,Pf_72h_%Growth_Rep2,"[1]; P. falciparum 3D7, 72 h, library screen at 2 μg/mL, % growth, replicate 2",36.72%
same,Tg_72h_%Growth_Rep1,"[2]; T. gondii RH, library screen at 2 μg/mL, % growth, replicate 1",22.41%
same,Tg_72h_%Growth_Rep2,"[2]; T. gondii RH, library screen at 2 μg/mL, % growth, replicate 2",22.70%
same,Pf_120h_%Growth_Rep1,"[3]; P. falciparum 3D7, 120 h, library screen at 2 μg/mL, % growth, replicate 1",2.62%
same,Pf_120h_%Growth_Rep2,"[3]; P. falciparum 3D7, 120 h, library screen at 2 μg/mL, % growth, replicate 2",15.42%
C=CC(C)(C)[C@@]12C[C@H]3C(=O)N4[C@@H](C[C@@]5(C(C)(C)C=C)c6ccccc6N[C@@H]45)C(=O)N3[C@@H]1Nc1ccccc12 [Amauromine],activity at 2 µg/mL,"[1]; library screen at 2 μg/mL, 72 h, % growth, replicate 1, read-out: Pf_72h_%Growth_Rep1",3.52%
same,activity at 2 µg/mL,"[1]; library screen at 2 μg/mL, 72 h, % growth, replicate 2, read-out: Pf_72h_%Growth_Rep2",3.82%
same,percent parasite growth at 2 µg/mL,"[2]; library screen at 2 μg/mL, % growth, replicate 1, read-out: Tg_72h_%Growth_Rep1",139%
same,percent parasite growth at 2 µg/mL,"[2]; library screen at 2 μg/mL, % growth, replicate 2, read-out: Tg_72h_%Growth_Rep2",104%
same,activity at 2 µg/mL,"[3]; library screen at 2 μg/mL, 120 h, % growth, replicate 1, read-out: Pf_120h_%Growth_Rep1",7.96%
same,activity at 2 µg/mL,"[3]; library screen at 2 μg/mL, 120 h, % growth, replicate 2, read-out: Pf_120h_%Growth_Rep2",0.67%
CN(C)[C@@H]1C(O)=C(C(N)=O)C(=O)[C@@]2(O)C(O)=C3C(=O)c4c(O)ccc(Cl)c4[C@@](C)(O)[C@H]3C[C@@H]12 [Chlortetracycline],activity at 2 µg/mL,"[1]; P. falciparum, 72 h, screen at 2 μg/mL, replicate 1, read-out: Pf_72h_%Growth_Rep1",97.7%
same,activity at 2 µg/mL,"[1]; P. falciparum, 72 h, screen at 2 μg/mL, replicate 2, read-out: Pf_72h_%Growth_Rep2",90.6%
same,percent parasite growth at 2 µg/mL,"[2]; T. gondii, screen at 2 μg/mL, replicate 1, read-out: Tg_72h_%Growth_Rep1",102%
same,percent parasite growth at 2 µg/mL,"[2]; T. gondii, screen at 2 μg/mL, replicate 2, read-out: Tg_72h_%Growth_Rep2",83.5%
same,activity at 2 µg/mL,"[3]; P. falciparum, 120 h, screen at 2 μg/mL, replicate 1, read-out: Pf_120h_%Growth_Rep1",149%
same,activity at 2 µg/mL,"[3]; P. falciparum, 120 h, screen at 2 μg/mL, replicate 2, read-out: Pf_120h_%Growth_Rep2",97.7%
"CCO[C@@H]1[C@@H](OC)[C@H](C)O[C@@H](O[C@H]2C[C@H]3[C@@H]4C=C5C(=O)[C@H](C)[C@@H](O[C@H]6CC[C@H](N(C)C)[C@@H](C)O6)CCC[C@H](CC)OC(=O)C[C@H]5[C@@H]4C=C(C)[C@@H]3C2)[C@@H]1OC [spinosyn L, 3'-Ethoxy-]",Pf_72h_%Growth_Rep1,"[1]; P. falciparum, 72 h, parasite screen 2 μg/mL, % growth, replicate 1",10.02%
same,Pf_72h_%Growth_Rep2,"[1]; P. falciparum, 72 h, parasite screen 2 μg/mL, % growth, replicate 2",-2.72%
same,Tg_72h_%Growth_Rep1,"[2]; T. gondii, parasite screen 2 μg/mL, % growth, replicate 1",142.09%
same,Tg_72h_%Growth_Rep2,"[2]; T. gondii, parasite screen 2 μg/mL, % growth, replicate 2",79.71%
same,Pf_120h_%Growth_Rep1,"[3]; P. falciparum, 120 h, parasite screen 2 μg/mL, % growth, replicate 1",13.87%
same,Pf_120h_%Growth_Rep2,"[3]; P. falciparum, 120 h, parasite screen 2 μg/mL, % growth, replicate 2",7.84%
Cinnamycin,Pf_72h_%Growth_Rep1,"[1]; P. falciparum, 72 h, screen at 2 μg/mL, replicate 1",85.92%
same,Pf_72h_%Growth_Rep2,"[1]; P. falciparum, 72 h, screen at 2 μg/mL, replicate 2",85.03%
same,Tg_72h_%Growth_Rep1,"[2]; T. gondii, screen at 2 μg/mL, replicate 1",85.83%
same,Tg_72h_%Growth_Rep2,"[2]; T. gondii, screen at 2 μg/mL, replicate 2",93.54%
same,Pf_120h_%Growth_Rep1,"[3]; P. falciparum, 120 h, screen at 2 μg/mL, replicate 1",137.57%
same,Pf_120h_%Growth_Rep2,"[3]; P. falciparum, 120 h, screen at 2 μg/mL, replicate 2",92.38%
CO[C@@H]1[C@@H](OC(N)=O)[C@@H](O)[C@H](Oc2ccc3c(O)c(NC(=O)c4ccc(O)c(CCC(C)C)c4)c(=O)oc3c2C)OC1(C)C [Dihydronovobiocin],Pf_72h_%Growth_Rep1,[1]; [4],88.16%
same,Pf_72h_%Growth_Rep2,[1]; [5],85.96%
same,Tg_72h_%Growth_Rep1,[2]; [6],162.91%
same,Tg_72h_%Growth_Rep2,[2]; [7],101.29%
same,Pf_120h_%Growth_Rep1,[3]; [8],93.97%
same,Pf_120h_%Growth_Rep2,[3]; [9],91.59%
COc1c(C)c2c(c(O)c1C/C=C(\C)CCC(=O)O)C(=O)OC2 [BIA-M1207],Pf_72h_%Growth_Rep1,"[1]; P. falciparum 3D7, 72 h, parasite screen at 2 μg/mL, % growth, replicate 1",27.32%
same,Pf_72h_%Growth_Rep2,"[1]; P. falciparum 3D7, 72 h, parasite screen at 2 μg/mL, % growth, replicate 2",1.32%
same,Tg_72h_%Growth_Rep1,"[2]; T. gondii, parasite screen at 2 μg/mL, % growth, replicate 1",1.75%
same,Tg_72h_%Growth_Rep2,"[2]; T. gondii, parasite screen at 2 μg/mL, % growth, replicate 2",2.10%
same,Pf_120h_%Growth_Rep1,"[3]; P. falciparum 3D7, 120 h, parasite screen at 2 μg/mL, % growth, replicate 1",16.21%
same,Pf_120h_%Growth_Rep2,"[3]; P. falciparum 3D7, 120 h, parasite screen at 2 μg/mL, % growth, replicate 2",22.24%
